Here are results for twelve compounds from US12239711B2, “Cereblon ligands and bifunctional compounds comprising the same” (Arvinas Operations, Inc., priority 2014, dated 2025).

Each structure is given as a SMILES string.

In this assay the test system is androgen receptor (AR). The assay can be described thus: AR ELISA assay in LNCaP and/or VCaP cells. It is filed as cell-based. The following applies: 5 hours. The method, then: 4. AR ELISA Assay Protocol for Table 6
Compounds were evaluated in this assay in LNCaP and/or VCaP cells utilizing similar protocols. The protocols used with VCaP cells are described below. The androgen receptor ELISA assay was performed using PathScani AR Sandwich ELISA (Cell Signaling Catalog #12850) according to the following assay steps:
VCaP cells were seeded at 40,000 cells/well at a volume of 100 μL/well in VCaP assay medium [Phenol red free RPMI (Gibco Cat #11835-030); 5% Charcoal Stripped (Dextran treated) FBS (Omega Scientific, Cat #FB-04); 1% penstrep (Life Technologies, Gibco Cat #: 10378-016)] in Corning 3904 plates. The cells were incubated for a minimum of 3 days. Cells were dosed with PROTACs diluted in 0.01% DMSO and the drug treatment was allowed for 5 hours.
AR ELISA (Cell Signaling) was performed as follows: 1× Cell Signaling Cell lysis buffer was made (Catalogue #9803; comes with the kit). Media from the treated wells is aspirated, and 100 μL 1× cell lysis buffer/well is added. The cells were placed on a shaker for 10 minutes at 4° C. Twenty microliters of lysate was transferred to 100 μl of Diluent in ELISA plate (0.15 μg/ml-0.075 μg/ml). The lysate-diluent mixture was shaken for 30 minutes at 37° C. Allow mouse AR antibody, anti-mouse antibody, TMB, and STOP solution to come to room temperature. The 1× ELISA buffer included in kit was made and loaded in the reservoir. Media from the plates was discarded, the ELISA plate tapped hard on paper towel, and washed 4×200 μl ELISA wash buffer using a plate washer.
One-hundred (100) μL/well of mouse AR detection Ab was added; the plates were covered and shaken at 37° C. for 1 hour; media was discarded from the plates, the plates were tapped on a paper towel, washed 4× with 200 μL ELISA wash buffer with a plate washer.
One-hundred (100) μL/well of anti-mouse—HRP conjugated Ab (comes with the kit) was added; the plates were covered and shaken at 37° C. for 30 minutes; the TMB reagent was allowed to come to room temperature; the media was discard from the plate, the plates were tapped on paper towl, washed 4× with 200 μL of ELISA wash buffer; the plates were tapped the plates on paper towl. One-hundred (100) μL of TMB was added and the plates shaken for 2 minutes—while watching for color development. One-hundred (100) μL Stop solution was added when light blue color developed. Plates were shaken and read at 450 nm.
Progression of prostate cancer in patients treated with anti-androgen therapy usually involves one of several mechanisms of enhanced Androgen Receptor (AR) signaling, including increased intratumoral androgen synthesis, increased AR expression and AR mutations. PROTACs (PROteolysis TArgeting Chimera), which use bi-functional molecules that simultaneously bind a target of choice and an E3 ligase, cause ubiquitination via induced proximity and degradation of the targeted, pathological protein. As opposed to traditional target inhibition, which is a competitive process, degradation is a progressive process. As such, it is less susceptible to increases in endogenous ligand, target expression, or mutations in the target. Thus, this technology appears to be ideal for addressing the mechanisms of AR resistance in patients with prostate cancer. Data was analyzed and plotted using GraphPad Prism software.

On to `COc1cc(N2CCN(CC3CCN(c4ccc(C(=O)N[C@H]5CC[C@H](Oc6ccc(C#N)c(Cl)c6)CC5)nn4)CC3)CC2)cc2c1C(=O)N(C1CCC(=O)NC1=O)C2=O` (mixture of isomers) [compound 32, rac-N-((1r,4r)-4-(3-chloro-4-cyanophenoxy)cyclohexyl)-6-(4-((4-(2-(2,6-dioxopiperidin-3-yl)-7-methoxy-1,3-dioxoisoindolin-5-yl)piperazin-1-yl)methyl)piperidin-1-yl)pyridazine-3-carboxamide], for which the DC50 was under 1 nM.
`COc1cc(N2CCN(CC3CCN(c4ncc(C(=O)N[C@H]5C(C)(C)[C@H](Oc6ccc(C#N)c(Cl)c6)C5(C)C)cn4)CC3)CC2)cc2c1C(=O)N(C1CCC(=O)NC1=O)C2=O` (mixture of isomers) [compound 33, rac-N-((1r,3r)-3-(3-chloro-4-cyanophenoxy)-2,2,4,4-tetramethylcyclobutyl)-2-(4-((4-(2-(2,6-dioxopiperidin-3-yl)-7-methoxy-1,3-dioxoisoindolin-5-yl)piperazin-1-yl)methyl)piperidin-1-yl)pyrimidine-5-carboxamide] registered a DC50 of under 1 nM.
With `CC1(C)[C@H](NC(=O)c2ccc(N3CCC(CN4CCN(c5ccc6c(c5)C5(CC5)N(C5CCC(=O)NC5=O)C6=O)CC4)CC3)cc2)C(C)(C)[C@H]1Oc1ccc(C#N)c(Cl)c1` (mixture of isomers) [compound 34, rac-N-((1r,3r)-3-(3-chloro-4-cyanophenoxy)-2,2,4,4-tetramethylcyclobutyl)-4-(4-((4-(2′-(2,6-dioxopiperidin-3-yl)-3′-oxospiro[cyclopropane-1,1′-isoindolin]-6′-yl)piperazin-1-yl)methyl)piperidin-1-yl)benzamide], the “AR Dmax” value is “C (C < 50)”.
For the compound `CC(C)N(CC1CCN(c2cnc(C(=O)N[C@H]3CC[C@H](Oc4ccc(C#N)c(Cl)c4)CC3)cn2)CC1)[C@H]1C[C@H](Oc2ccc3c(c2)C(=O)N(C2CCC(=O)NC2=O)C32CC2)C1` (mixture of isomers) [compound 35, rac-N-((1r,4r)-4-(3-chloro-4-cyanophenoxy)cyclohexyl)-5-(4-((((1r,3r)-3-((2′-(2,6-dioxopiperidin-3-yl)-3′-oxospiro[cyclopropane-1,1′-isoindolin]-5′-yl)oxy)cyclobutyl)(isopropyl)amino)methyl)piperidin-1-yl)pyrazine-2-carboxamide], the “AR Dmax” value is “C (C < 50)”.
As to `CC(C)N(CC1CCN(c2cnc(C(=O)N[C@H]3CC[C@H](Oc4ccc(C#N)c(Cl)c4)CC3)cn2)CC1)[C@H]1C[C@H](Oc2ccc3c(c2)C2(CC2)N(C2CCC(=O)NC2=O)C3=O)C1` (mixture of isomers) [compound 36, rac-N-((1r,4r)-4-(3-chloro-4-cyanophenoxy)cyclohexyl)-5-(4-((((1r,3r)-3-((2′-(2,6-dioxopiperidin-3-yl)-3′-oxospiro[cyclopropane-1,1′-isoindolin]-6′-yl)oxy)cyclobutyl)(isopropyl)amino)methyl)piperidin-1-yl)pyrazine-2-carboxamide], the “AR Dmax” value is recorded as “C (C < 50)”.
Regarding `CC(C)N(CC1CCN(c2cnc(C(=O)N[C@H]3C(C)(C)[C@H](Oc4ccc(C#N)c(Cl)c4)C3(C)C)cn2)CC1)[C@H]1C[C@H](Oc2ccc3c(c2)C(=O)N(C2CCC(=O)NC2=O)C32CC2)C1` (mixture of isomers) [compound 37, rac-N-((1r,3r)-3-(3-chloro-4-cyanophenoxy)-2,2,4,4-tetramethylcyclobutyl)-5-(4-((((1r,3r)-3-((2′-(2,6-dioxopiperidin-3-yl)-3′-oxospiro[cyclopropane-1,1′-isoindolin]-5′-yl)oxy)cyclobutyl)(isopropyl)amino)methyl)piperidin-1-yl)pyrazine-2-carboxamide], the “AR Dmax” value is “C (C < 50)”.
On to `CC(C)N(CC1CCN(c2cnc(C(=O)N[C@H]3C(C)(C)[C@H](Oc4ccc(C#N)c(Cl)c4)C3(C)C)cn2)CC1)[C@H]1C[C@H](Oc2ccc3c(c2)C2(CC2)N(C2CCC(=O)NC2=O)C3=O)C1` (mixture of isomers) [compound 38, rac-N-((1r,3r)-3-(3-chloro-4-cyanophenoxy)-2,2,4,4-tetramethylcyclobutyl)-5-(4-((((1r,3r)-3-((2′-(2,6-dioxopiperidin-3-yl)-3′-oxospiro[cyclopropane-1,1′-isoindolin]-6′-yl)oxy)cyclobutyl)(isopropyl)amino)methyl)piperidin-1-yl)pyrazine-2-carboxamide], for which the “AR Dmax” value was “C (C < 50)”.
`CC1(C)[C@H](NC(=O)c2ccc(N3CCN(CCCCCOc4ccc5c(c4)CCN(C4CCC(=O)NC4=O)C5=O)CC3)nc2)C(C)(C)[C@H]1Oc1ccc(C#N)c(Cl)c1` (mixture of isomers) [compound 46, N-((1r,3r)-3-(3-chloro-4-cyanophenoxy)-2,2,4,4-tetramethylcyclobutyl)-6-(4-(5-(2-(2,6-dioxopiperidin-3-yl)-1-oxo-1,2,3,4-tetrahydroisoquinolin-6-yloxy)pentyl)piperazin-1-yl)nicotinamide]: the “AR Dmax” value was “A (A >= 75)” and the DC50 was under 1 nM.
Regarding `CC1(C)[C@H](NC(=O)c2ccc(N3CCN(CCCCCOc4ccc5c(c4)CC(=O)N(C4CCC(=O)NC4=O)C5=O)CC3)nc2)C(C)(C)[C@H]1Oc1ccc(C#N)c(Cl)c1` (mixture of isomers) [compound 47, N-((1r,3r)-3-(3-chloro-4-cyanophenoxy)-2,2,4,4-tetramethylcyclobutyl)-6-(4-(5-((2-(2,6-dioxopiperidin-3-yl)-1,3-dioxo-1,2,3,4-tetrahydroisoquinolin-6-yl)oxy)pentyl)piperazin-1-yl)nicotinamide], the “AR Dmax” value is listed as “B (50 <= B < 75)” and the DC50 lay in the range of 1 to 10 nM.
In the same order, the values of `CC1(C)[C@H](NC(=O)c2ccc(N3CCN(CCCCCOc4ccn5c(=O)n(C6CCC(=O)NC6=O)nc5c4)CC3)nc2)C(C)(C)[C@H]1Oc1ccc(C#N)c(Cl)c1` (mixture of isomers) [compound 48, N-((1r,3r)-3-(3-chloro-4-cyanophenoxy)-2,2,4,4-tetramethylcyclobutyl)-6-(4-(5-((2-(2,6-dioxopiperidin-3-yl)-3-oxo-2,3-dihydro-[1,2,4]triazolo[4,3-a]pyridin-7-yl)oxy)pentyl)piperazin-1-yl)nicotinamide] are “B (50 <= B < 75)” and under 1 nM.
Turning to `CC1(C)[C@H](NC(=O)c2ccc(N3CCN(CCCCCOc4ccc5nn(C6CCC(=O)NC6=O)c(=O)n5c4)CC3)nc2)C(C)(C)[C@H]1Oc1ccc(C#N)c(Cl)c1` (mixture of isomers) [compound 49, N-((1r,3r)-3-(3-chloro-4-cyanophenoxy)-2,2,4,4-tetramethylcyclobutyl)-6-(4-(5-((2-(2,6-dioxopiperidin-3-yl)-3-oxo-2,3-dihydro-[1,2,4]triazolo[4,3-a]pyridin-6-yl)oxy)pentyl)piperazin-1-yl)nicotinamide], the “AR Dmax” value was “A (A >= 75)” and the DC50 is under 1 nM.
For `CC1(C)[C@H](NC(=O)c2ccc(N3CCC(CN4CCN(c5ccn6c(=O)n(C7CCC(=O)NC7=O)nc6c5)CC4)CC3)cc2)C(C)(C)[C@H]1Oc1ccc(C#N)c(Cl)c1` (mixture of isomers) [compound 50, N-((1r,3r)-3-(3-chloro-4-cyanophenoxy)-2,2,4,4-tetramethylcyclobutyl)-4-(4-((4-(2-(2,6-dioxopiperidin-3-yl)-3-oxo-2,3-dihydro-[1,2,4]triazolo[4,3-a]pyridin-7-yl)piperazin-1-yl)methyl)piperidin-1-yl)benzamide], the “AR Dmax” value is recorded as “A (A >= 75)” and the DC50 was under 1 nM.
